Laboratory results from US8138189B2, “Substituted benzene compounds as modulators of the glucocorticoid receptor” (Hoffman-La Roche Inc., priority 2009, dated 2012).

target: T1, full length human recombinant glucocorticoid receptor (Homo sapiens, UniProt P04150); test: Glucocorticoid Receptor Binding Assay (fluorescence polarization competitor assay, Fluormone GS Far Red tracer)
T1 construct: partially purified full length human recombinant glucocorticoid receptor; purchased Panvera/Invitrogen PV4302
T1 sequence (P04150 1-777): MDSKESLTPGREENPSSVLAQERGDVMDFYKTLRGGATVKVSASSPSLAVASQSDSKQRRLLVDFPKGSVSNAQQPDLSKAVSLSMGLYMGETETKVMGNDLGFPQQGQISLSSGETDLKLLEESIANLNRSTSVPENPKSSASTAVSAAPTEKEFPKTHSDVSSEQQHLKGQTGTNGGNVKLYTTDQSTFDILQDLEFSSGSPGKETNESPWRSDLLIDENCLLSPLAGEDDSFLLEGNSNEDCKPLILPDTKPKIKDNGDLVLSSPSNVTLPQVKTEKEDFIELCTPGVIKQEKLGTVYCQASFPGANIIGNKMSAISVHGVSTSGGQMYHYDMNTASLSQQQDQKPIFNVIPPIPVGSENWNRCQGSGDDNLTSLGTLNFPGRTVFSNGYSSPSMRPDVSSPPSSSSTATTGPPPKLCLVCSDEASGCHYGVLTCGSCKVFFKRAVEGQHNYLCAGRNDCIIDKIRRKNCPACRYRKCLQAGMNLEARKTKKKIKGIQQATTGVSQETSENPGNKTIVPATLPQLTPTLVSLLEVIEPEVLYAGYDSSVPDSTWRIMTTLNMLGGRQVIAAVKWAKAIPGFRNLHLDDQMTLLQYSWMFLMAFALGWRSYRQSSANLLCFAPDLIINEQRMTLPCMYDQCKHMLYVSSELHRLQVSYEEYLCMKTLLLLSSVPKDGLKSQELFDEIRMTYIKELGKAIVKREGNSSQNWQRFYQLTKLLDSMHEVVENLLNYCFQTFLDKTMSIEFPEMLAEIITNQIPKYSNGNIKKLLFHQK
How it was run: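 Partially purified full-length recombinant human GR with a stabilizing coactivator peptide was incubated with Fluormone GS Far Red tracer and serially diluted compound for 3 h at 22 °C in the dark, pH 7.4. Fluorescence polarization was read at 610-660 nm. IC50 came from sigmoidal fitting, and Ki from Cheng-Prusoff.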

SMILES	Ki
CCOC(=O)COc1cc(Oc2ccc([C@@H](C)[C@@](O)(c3ccc(=O)n(C)c3)C(F)(F)F)c(Cl)c2)ccc1F (stereo in doubt) [Example 161, (5-{3-Chloro-4-[3,3,3-trifluoro-2-hydroxy-1-methyl-2-(1-methyl-6-oxo-1,6-dihydro-pyridin-3-yl)-propyl]-phenoxy}-2-fluoro-phenoxy)-acetic acid ethyl ester]	0.0031 µM
C[C@H](c1ccc(Oc2ccc(F)c(OCC(=O)O)c2)cc1Cl)[C@@](O)(c1ccc(=O)n(C)c1)C(F)(F)F (stereo in doubt) [Example 162, (5-{3-Chloro-4-[3,3,3-trifluoro-2-hydroxy-1-methyl-2-(1-methyl-6-oxo-1,6-dihydro-pyridin-3-yl)-propyl]-phenoxy}-2-fluoro-phenoxy)-acetic acid]	0.0006 µM
C[C@H](c1ccc(Oc2cc(C(F)(F)F)c(C(=O)O)cn2)cc1Cl)[C@@](O)(c1ccc(=O)n(C)c1)C(F)(F)F (stereo in doubt) [Example 164, 6-{3-Chloro-4-[3,3,3-trifluoro-2-hydroxy-1-methyl-2-(1-methyl-6-oxo-1,6-dihydro-pyridin-3-yl)-propyl]-phenoxy}-4-trifluoromethyl-nicotinic acid]	0.0402 µM
C[C@@H](c1ccc(-c2ccc(C(=O)O)c(Cl)c2)cc1Cl)[C@](O)(c1ccc(=O)n(C)c1)C(F)(F)F (stereo in doubt) [Example 169, 3,3′-Dichloro-4′-[3,3,3-trifluoro-2-hydroxy-1-methyl-2-(1-methyl-6-oxo-1,6-dihydro-pyridin-3-yl)-propyl]-biphenyl-4-carboxylic acid]	0.0181 µM
C[C@@H](c1ccc(-c2ccc(Cl)c(C(=O)O)c2)cc1Cl)[C@](O)(c1ccc(=O)n(C)c1)C(F)(F)F (stereo in doubt) [Example 170, 4,3′-Dichloro-4′-[3,3,3-trifluoro-2-hydroxy-1-methyl-2-(1-methyl-6-oxo-1,6-dihydro-pyridin-3-yl)-propyl]-biphenyl-3-carboxylic acid]	0.0497 µM
CCOC(=O)c1cc(-c2ccc([C@H](C)[C@](O)(c3ccc(=O)n(C)c3)C(F)(F)F)c(Cl)c2)ccc1F (stereo in doubt) [Example 172, 3′-Chloro-4-fluoro-4′-[3,3,3-trifluoro-2-hydroxy-1-methyl-2-(1-methyl-6-oxo-1,6-dihydro-pyridin-3-yl)-propyl]-biphenyl-3-carboxylic acid ethyl ester]	0.0038 µM
COC(=O)c1ccc(-c2ccc([C@H](C)[C@](O)(c3ccc(=O)n(C)c3)C(F)(F)F)c(Cl)c2)cc1OC (stereo in doubt) [Example 173, 3′-Chloro-3-methoxy-4′-[3,3,3-trifluoro-2-hydroxy-1-methyl-2-(1-methyl-6-oxo-1,6-dihydro-pyridin-3-yl)-propyl]-biphenyl-4-carboxylic acid methyl ester]	0.0073 µM
COc1cc(-c2ccc([C@H](C)[C@](O)(c3ccc(=O)n(C)c3)C(F)(F)F)c(Cl)c2)ccc1C(=O)O (stereo in doubt) [Example 174, 3′-Chloro-3-methoxy-4′-[3,3,3-trifluoro-2-hydroxy-1-methyl-2-(1-methyl-6-oxo-1,6-dihydro-pyridin-3-yl)-propyl]-biphenyl-4-carboxylic acid]	0.0973 µM
COC(=O)c1ccc(-c2ccc([C@H](C)[C@](O)(c3ccc(OC)nc3)C(F)(F)F)c(Cl)c2)cc1F (stereo in doubt) [Example 176, 3′-Chloro-3-fluoro-4′-[3,3,3-trifluoro-2-hydroxy-2-(6-methoxy-pyridin-3-yl)-1-methyl-propyl]-biphenyl-4-carboxylic acid methyl ester]	0.0935 µM
COC(=O)c1ccc(-c2ccc([C@H](C)[C@](O)(c3ccc(OC)nc3)C(F)(F)F)c(Cl)c2)cc1Cl (stereo in doubt) [Example 178, 3,3′-Dichloro-4′-[3,3,3-trifluoro-2-hydroxy-2-(6-methoxy-pyridin-3-yl)-1-methyl-propyl]-biphenyl-4-carboxylic acid methyl ester]	0.0721 µM
CCOC(=O)c1cc(-c2ccc([C@H](C)[C@](O)(c3ccc(OC)nc3)C(F)(F)F)c(Cl)c2)ccc1Cl (stereo in doubt) [Example 180, 4,3′-Dichloro-4′-[3,3,3-trifluoro-2-hydroxy-2-(6-methoxy-pyridin-3-yl)-1-methyl-propyl]-biphenyl-3-carboxylic acid ethyl ester]	0.0384 µM
CCn1cc([C@@](O)([C@@H](C)c2ccc(-c3ccc(F)c(C(=O)O)c3)cc2Cl)C(F)(F)F)ccc1=O (stereo in doubt) [Example 184, 3′-Chloro-4′-[2-(1-ethyl-6-oxo-1,6-dihydro-pyridin-3-yl)-3,3,3-trifluoro-2-hydroxy-1-methyl-propyl]-4-fluoro-biphenyl-3-carboxylic acid]	0.0104 µM
CCn1cc([C@@](O)([C@@H](C)c2ccc(-c3ccc(C(=O)OC)c(F)c3)cc2Cl)C(F)(F)F)ccc1=O (stereo in doubt) [Example 185, 3′-Chloro-4′-[2-(1-ethyl-6-oxo-1,6-dihydropyridin-3-yl)-3,3,3-trifluoro-2-hydroxy-1-methyl-propyl]-3-fluoro-biphenyl-4-carboxylic acid methyl ester]	0.0121 µM
CCn1cc([C@@](O)([C@@H](C)c2ccc(-c3ccc(C(=O)OC)c(OC)c3)cc2Cl)C(F)(F)F)ccc1=O (stereo in doubt) [Example 187, 3′-Chloro-4′-[2-(1-ethyl-6-oxo-1,6-dihydro-pyridin-3-yl)-3,3,3-trifluoro-2-hydroxy-1-methyl-propyl]-3-methoxy-biphenyl-4-carboxylic acid methyl ester]	0.0074 µM
CCn1cc([C@@](O)([C@@H](C)c2ccc(-c3ccc(C(=O)O)c(OC)c3)cc2Cl)C(F)(F)F)ccc1=O (stereo in doubt) [Example 188, 3′-Chloro-4′-[2-(1-ethyl-6-oxo-1,6-dihydro-pyridin-3-yl)-3,3,3-trifluoro-2-hydroxy-1-methyl-propyl]-3-methoxy-biphenyl-4-carboxylic acid]	0.0987 µM
C[C@@H](c1cc(Oc2ccc(C(=O)O)c(Cl)c2)ccc1Cl)[C@](O)(c1ccc(=O)n(C)c1)C(F)(F)F (stereo in doubt) [Example 190, 2-Chloro-4-{4-chloro-3-[3,3,3-trifluoro-2-hydroxy-1-methyl-2-(1-methyl-6-oxo-1,6-dihydro-pyridin-3-yl)-propyl]-phenoxy}-benzoic acid]	0.0514 µM
CCOC(=O)c1cc(Oc2ccc(Cl)c([C@H](C)[C@](O)(c3ccc(=O)n(C)c3)C(F)(F)F)c2)ccc1F (stereo in doubt) [Example 193, 5-{4-Chloro-3-[3,3,3-trifluoro-2-hydroxy-1-methyl-2-(1-methyl-6-oxo-1,6-dihydro-pyridin-3-yl)-propyl]-phenoxy}-2-fluoro-benzoic acid ethyl ester]	0.0103 µM
C[C@@H](c1cc(Oc2ccc(F)c(C(=O)O)c2)ccc1Cl)[C@](O)(c1ccc(=O)n(C)c1)C(F)(F)F (stereo in doubt) [Example 194, 5-{4-Chloro-3-[3,3,3-trifluoro-2-hydroxy-1-methyl-2-(1-methyl-6-oxo-1,6-dihydro-pyridin-3-yl)-propyl]-phenoxy}-2-fluoro-benzoic acid]	0.0323 µM
CCOC(=O)c1cc(Oc2ccc(Cl)c([C@H](C)[C@](O)(c3ccc(=O)n(C)c3)C(F)(F)F)c2)ccc1Cl (stereo in doubt) [Example 195, 2-Chloro-5-{4-chloro-3-[3,3,3-trifluoro-2-hydroxy-1-methyl-2-(1-methyl-6-oxo-1,6-dihydro-pyridin-3-yl)-propyl]-phenoxy}-benzoic acid ethyl ester]	0.017 µM
C[C@@H](c1cc(Oc2ccc(Cl)c(C(=O)O)c2)ccc1Cl)[C@](O)(c1ccc(=O)n(C)c1)C(F)(F)F (stereo in doubt) [Example 196, 2-Chloro-5-{4-chloro-3-[3,3,3-trifluoro-2-hydroxy-1-methyl-2-(1-methyl-6-oxo-1,6-dihydro-pyridin-3-yl)-propyl]-phenoxy}-benzoic acid]	0.0458 µM
C[C@H](c1ccc(Oc2ccc(C(=O)O)cc2)c(Cl)c1Cl)[C@@](O)(c1ccc(=O)n(C)c1)C(F)(F)F (stereo in doubt) [Example 198, 4-{2,3-Dichloro-4-[3,3,3-trifluoro-2-hydroxy-1-methyl-2-(1-methyl-6-oxo-1,6-dihydro-pyridin-3-yl)-propyl]-phenoxy}-benzoic acid]	0.0034 µM
COC(=O)c1ccc(Oc2ccc([C@@H](C)[C@@](O)(c3ccc(=O)n(C)c3)C(F)(F)F)c(Cl)c2Cl)cc1F (stereo in doubt) [Example 199, 4-{2,3-Dichloro-4-[3,3,3-trifluoro-2-hydroxy-1-methyl-2-(1-methyl-6-oxo-1,6-dihydro-pyridin-3-yl)-propyl]-phenoxy}-2-fluoro-benzoic acid methyl ester]	0.0026 µM
